# Marks after values point to notes of the source that are not given here.
# Tests used:
# [1] = test system: Silverleaf whitefly biotype Q (neonicotinoid-resistant strain); assay: Lab tests in cotton: nymph mortality of silverleaf whitefly biotype Q; type: in vivo, Bemisia tabaci; details: cotton plants
# Description: (§1) Cotton plants were grown in pots and sprayed with the indicated materials using a hand-sprayer. 20-25 females of Silverleaf whitefly biotype B (neonicotinoid-sensitive strain) or biotype Q (neonicotinoid-resistant strain) were transferred to each pot and attached to the treated leaves. Nymphs mortality was evaluated 1 and 2 weeks after treatment application and determined by percent (%) of pupation.
# [2] = test system: Silverleaf whitefly biotype B (neonicotinoid-sensitive strain); assay: Lab tests in cotton: nymph mortality of silverleaf whitefly biotype B; type: in vivo, Bemisia tabaci; details: cotton plants; acetamiprid-treated (FIG. 3A)
# Description: as §1
# [3] = test system: Thrips tabaci; assay: Field tests in cauliflower: Thrips on leaves and Thrips-induced damage; type: in vivo; details: another experiment, diafenthiuron 375 g/ha, PPT 400 g/ha; for Thrips adults per leaf / Thrips larva per leaf: cauliflower
# Source text: Cauliflower plants of White Corona variety at 20-30 cm height were sprayed twice at a 7 days interval with the indicted materials at a volume of 400-500 liter per hectare, using 3-nozzled ECHO backpack sprayer. The experiment included 4 repeats in random blocks of […] plants growth, each repeat at an area of 20 m^2. plots having high levels of Thrips tabaci (Thrips) infestation (5-10 Thrips per leaf) at uniform distribution at the beginning of the experiment were chosen for analysis, and 10 leaves per plot were picked and assessed for Thrips number. The number of Thrips adults or larva on each leaf was counted using OptiVISOR® magnifying device. The number of silverleaf whitefly (SLW) nymphs on each leaf was also counted using OptiVISOR® magnifying device.
# At the end of the experiment the damage to the upper side of leaves caused by Thrips infestation was assessed on a scale of 0-5, where 0 equals no damage and 5 equals scraping on the leaf's blade (surface).
# [4] = test system: Thrips tabaci; assay: Field tests in cucumber: number of Thrips on leaves; type: in vivo; details: second experiment
# Source text: Cucumber plants of kingstar variety at 170-190 cm height were sprayed twice at a 4 days interval with the indicted materials at a volume of 400-600 liter per hectare, using 3-nozzled ECHO backpack sprayer. The experiment included 4 repeats in random blocks of cucumber plants growth, each repeat at an area of 10-16 m^2. Plots having high levels of Thrips tabaci (Thrips) infestation (5-10 Thrips per leaf) at uniform distribution at the beginning of the experiment were chosen for analysis, and 10 leaves at shoulder height were picked and the number of Thrips was determined for each leaf.
# [5] = test system: Spodoptera littoralis stage 2-3 larva; assay: Screening assay for lethality; type: in vivo; details: PPT 50 ppm added to artificial medium; 3 screens, 4 larva replicates each
# Description: Spodoptera littoralis stage 2-3 larva were grown in entomology trays on artificial medium. Treatment with PPT was effected by the addition of PPT (50 ppm) to the medium and lethality was assessed. The screening assay was repeated 3 times, with 4 larva replicates in each screen.
# [6] = test system: Pink Bollworm (Pectinophora gossypiella); assay: Lab tests on pink bollworm eggs: hatching and larva development; type: in vivo; details: 0.15% PPT solution, 5 repeats
# Source text: Paper cuttings with Egg clusters of pink bollworm were soaked in a 0.15% PPT solution, and hatching and larva development were observed compared to untreated controls (UTC).
# [7] = test system: Aphids (Aphis gossypii); assay: Field tests in cotton: number of Aphids; type: in vivo; details: 6 days after the third application; EOS 1%, spinosad 60.5 g/ha, PPT 100 or 300 g/ha (FIG. 4B)
# Source text: Cotton plants were sprayed 3-4 times at 6-7 days interval with the indicated materials at a volume of 400 liter per hectare. The experiment included 4-5 repeats in random blocks of cotton plants growth, each repeat at an area of 8-10 m^2. The number of Thrips adults or larva, as well as the number of Aphids (Aphis gossypii), on each leaf was counted using OptiVISOR® magnifying device.
# [8] = 4 DPA, neem oil 1%, PPT alone 225 g/ha
# [9] = 9 DPA, neem oil 1%, PPT alone 225 g/ha
# [10] = Day 0 (baseline), neem oil 1%, PPT alone 225 g/ha
compound,measurement,setting,value
"C/C(=N\C#N)N(C)Cc1ccc(Cl)nc1 [Acetamiprid, reference compound]","nymph mortality of SLW biotype Q, determined by percent of pupation",[1]; acetamiprid 10 ppm (FIG. 3B),had no effect
same,"nymph mortality of SLW biotype B, determined by percent of pupation",[2],efficient in eliminating SLW nymphs
"CC(C)c1cc(Oc2ccccc2)cc(C(C)C)c1NC(=S)NC(C)(C)C [Diafenthiuron, reference compound]",% efficacy on Thrips larva in cauliflower leaves,[3]; 7 DPA,10%
same,% efficacy on Thrips larva in cauliflower leaves,[3]; 14 DPA,0%
same,Thrips adults per leaf,[3]; 7 DPA,1.3 per leaf
same,Thrips larva per leaf,[3]; 7 DPA,13.9 per leaf
same,Thrips adults per leaf,[3]; 14 DPA,2.1 per leaf
same,Thrips larva per leaf,[3]; 14 DPA,9.8 per leaf
same,Thrips adults per leaf,[3]; Day 0 (baseline),2.9 per leaf
same,Thrips larva per leaf,[3]; Day 0 (baseline),13.0 per leaf
"CC(C)=CCC[C@](C)(O)[C@H]1CC[C@]2(C)[C@@H]1[C@H](O)C[C@@H]1[C@@]3(C)CC[C@H](O)C(C)(C)[C@@H]3[C@@H](O)C[C@]12C [PPT, Protopanaxatriol]",% efficacy on Thrips in cucumber leaves,"[4]; 4 DPA, PPT 500 g/ha",65.8%
same,Number of Thrips adults on 10 cucumber leaves,"[4]; 4 DPA, PPT 500 g/ha",42.5
same,Number of Thrips larva on 10 cucumber leaves,"[4]; 4 DPA, PPT 500 g/ha",30.0^a
same,Number of total Thrips (adults and larva) on 10 cucumber leaves,"[4]; 4 DPA, PPT 500 g/ha",72.5^a
same,% efficacy on Thrips in cucumber leaves,[4]; [8],41.4%
same,Number of Thrips adults on 10 cucumber leaves,[4]; [8],78.3
same,Number of Thrips larva on 10 cucumber leaves,[4]; [8],45.8^a
same,Number of total Thrips (adults and larva) on 10 cucumber leaves,[4]; [8],124.0
same,Number of Thrips adults on 10 cucumber leaves,"[4]; 9 DPA, PPT 500 g/ha",18.0
same,Number of Thrips larva on 10 cucumber leaves,"[4]; 9 DPA, PPT 500 g/ha",13.0
same,Number of total Thrips (adults and larva) on 10 cucumber leaves,"[4]; 9 DPA, PPT 500 g/ha",31.0
same,Number of Thrips adults on 10 cucumber leaves,[4]; [9],22.3
same,Number of Thrips larva on 10 cucumber leaves,[4]; [9],38.8
same,Number of total Thrips (adults and larva) on 10 cucumber leaves,[4]; [9],61.0
same,Number of Thrips adults on 10 cucumber leaves,"[4]; Day 0 (baseline), PPT 500 g/ha",41.8
same,Number of Thrips larva on 10 cucumber leaves,"[4]; Day 0 (baseline), PPT 500 g/ha",110.0
same,Number of total Thrips (adults and larva) on 10 cucumber leaves,"[4]; Day 0 (baseline), PPT 500 g/ha",151.8
same,Number of Thrips adults on 10 cucumber leaves,[4]; [10],36.0
same,Number of Thrips larva on 10 cucumber leaves,[4]; [10],95.8
same,Number of total Thrips (adults and larva) on 10 cucumber leaves,[4]; [10],131.8
same,lethality to larva,[5],lethal
same,mortality of resistant SLW biotype (Q) nymphs,"[1]; PPT 0.075% (0.5x) or 0.15% (1x), dose-dependent (FIG. 3B)",up to 93%
same,% efficacy on Thrips larva in cauliflower leaves,[3]; 7 DPA,60%
same,% efficacy on Thrips larva in cauliflower leaves,[3]; 14 DPA,60%
same,Thrips adults per leaf,[3]; 7 DPA,0.6 per leaf
same,Thrips larva per leaf,[3]; 7 DPA,5.9 per leaf
same,Thrips adults per leaf,[3]; 14 DPA,"0.48^a,b per leaf"
same,Thrips larva per leaf,[3]; 14 DPA,"4.4^a,b per leaf"
same,Thrips adults per leaf,[3]; Day 0 (baseline),3.0 per leaf
same,Thrips larva per leaf,[3]; Day 0 (baseline),16.5 per leaf
same,Average number of hatchings,[6]; day 9 after treatment,0.2
same,Average number of larva,[6]; day 16 post treatment,0
same,Average number of late hatchings,[6]; day 16 post treatment,1.8
spinosad,number of Aphids on the cotton plants,[7],little or no effect

# Source: patent US20220400670A1, “PROTOPANAXATRIOL (PPT)-TYPE COMPOUNDS AS ACTIVE INGREDIENTS IN INSECTICIDE PRODUCTS” (priority 2019, published 2022)
